Measurements published in patent US20250197864A1, “LNCRNA TRANSCRIPTS IN MELANOMAGENESIS” (The Regents of the University of California, priority 2021, published 2025).

Tested on: gene expression in D04 melanoma cells
Assay: RNA-Seq differential expression analysis (DESeq2)
Type: cell-based, human
Experimental: Total RNA was isolated using the RNeasy mini Kit (QIAGEN) following the manufacturer's protocol. Quality check for extracted RNA was done using 2100 Bioanalyzer (Agilent Technologies, USA) or Tapestation System (Agilent Technologies, USA). […] For samples used for identification of MAPK-responsive lncRNAs, paired-end, 101-bp sequencing was performed by Centrillion Genomic Services (Centrillion Biosciences, USA) on an Illumina HiSeq 2000. For DE gene analysis of ASO-transfected D04 samples, paired-end, 2×150-bp sequencing was performed by Genewiz (USA) on a Illumina HiSeq.
Sequence reads were aligned to the human genome (hg19) using TopHat (Version 2.0.11).
Differential expression (DE) analysis was done using DESeq2. Differentially expressed genes were defined by more than 1.5-fold changes (log 2 >0.58 or <−0.58) in expression with FDR<0.05. GO term analysis was done using DAVID Functional Annotation Clustering analysis.
To examine the biomolecular changes upon TRASH-inhibition in melanoma, D04 cells were treated with TRASH-ASOs (SEQ ID NO:15) and Control-ASOs and RNA was extracted and used for RNA-Seq. […] These GO terms consisted of genes encoding growth factors, tyrosine kinases, G protein coupled receptor subunits, and collagen subunits. Scatter plot diagram showing differential gene expression after TRASH-ASO treatment compared to Control-ASO treatment. (cut-off for significance was adjusted p-value <0.05). Data was obtained from RNA-Seq of D04 melanoma cells, treatment period was three days. (FIG. 5c)

In the case of “GACTGGAGATAATTAA (gapmer, pattern not given here) [SEQ ID NO: 15, GapmeR ASO targeting AC004540.4 (TRASH), exon region of both isoforms; used for in vitro experiments]”, the log2FoldChange (PPM1L (ENSG00000163590)) is reported as −0.7017, the log2FoldChange (PRICKLE2 (ENSG00000163637)) is reported as −0.6639 and the log2FoldChange (PRR5L (ENSG00000135362)) is reported as −0.6328. It also gave a log2FoldChange (PTPRN2 (ENSG00000155093)) of 2.844, a log2FoldChange (PTPRR (ENSG00000153233)) of 1.4591 and a log2FoldChange (PURPL (ENSG00000250337)) of −0.6494. The log2FoldChange (PYROXD2 (ENSG00000119943)) was −0.6602, the log2FoldChange (RAB11FIP3 (ENSG00000090565)) was −0.5869 and the log2FoldChange (RAB26 (ENSG00000167964)) was −0.6129. For the same sequence, the log2FoldChange (RAB39B (ENSG00000155961)) was 2.06, the log2FoldChange (RASEF (ENSG00000165105)) was 1.674 and the log2FoldChange (RASL10B (ENSG00000270885)) was −0.6526. It also gave a log2FoldChange (RBMS3 (ENSG00000144642)) of −0.6061, a log2FoldChange (RFTN2 (ENSG00000162944)) of −0.6802 and a log2FoldChange (RGS4 (ENSG00000117152)) of 1.366. It also gave a log2FoldChange (RGS5 (ENSG00000143248)) of −0.6262, a log2FoldChange (RINL (ENSG00000187994)) of 1.242 and a log2FoldChange (ROBO4 (ENSG00000154133)) of 2.692. The log2FoldChange (RPLPOP2 (ENSG00000243742)) was 1.744, the log2FoldChange (RUNDC3A (ENSG00000108309)) was 1.302 and the log2FoldChange (S1PR2 (ENSG00000267534)) was −0.6769. For the same sequence, the log2FoldChange (S100A3 (ENSG00000188015)) was −0.6246, the log2FoldChange (SAMD5 (ENSG00000203727)) was −0.6969 and the log2FoldChange (SAMD9L (ENSG00000177409)) was −0.5978. It also gave a log2FoldChange (SBSN (ENSG00000189001)) of 1.621, a log2FoldChange (SBSPON (ENSG00000164764)) of −0.705 and a log2FoldChange (SCG2 (ENSG00000171951)) of −0.6659. It also gave a log2FoldChange (SCG5 (ENSG00000166922)) of 1.621, a log2FoldChange (SCN1B (ENSG00000105711)) of −0.608 and a log2FoldChange (SCN4A (ENSG00000007314)) of 2.301. The log2FoldChange (SDCCAG8 (ENSG00000054282)) was −0.7066, the log2FoldChange (SERPINB7 (ENSG00000166396)) was 1.415 and the log2FoldChange (SERPINI2 (ENSG00000114204)) was 2.645. For the same sequence, the log2FoldChange (SH2D1B (ENSG00000198574)) was 1.495, the log2FoldChange (SHROOM4 (ENSG00000158352)) was −0.6228 and the log2FoldChange (SIGLEC15 (ENSG00000197046)) was 2.101. It also gave a log2FoldChange (SIL1 (ENSG00000120725)) of −0.6521, a log2FoldChange (SLAMF7 (ENSG00000026751)) of 2.821 and a log2FoldChange (SLAMF9 (ENSG00000162723)) of 2.487. For the same sequence, the log2FoldChange (SLC45A2 (ENSG00000164175)) was −0.6697, the log2FoldChange (SLCO4C1 (ENSG00000173930)) was −0.6425 and the log2FoldChange (SOCS2 (ENSG00000120833)) was −0.5921. It also gave a log2FoldChange (SOCS3 (ENSG00000184557)) of −0.6206, a log2FoldChange (SOX2 (ENSG00000181449)) of −0.7006 and a log2FoldChange (SPANXC (ENSG00000198573)) of 1.331. The log2FoldChange (SPINK1 (ENSG00000164266)) was 3.07, the log2FoldChange (SPINT2 (ENSG00000167642)) was 2.192 and the log2FoldChange (SPRY2 (ENSG00000136158)) was −0.6059. The log2FoldChange (SPRY4 (ENSG00000187678)) was −0.6537, the log2FoldChange (ST6GALNAC2 (ENSG00000070731)) was −0.6963 and the log2FoldChange (ST6GALNAC5 (ENSG00000117069)) was −0.6397. It also gave a log2FoldChange (STRA6 (ENSG00000137868)) of −0.6369, a log2FoldChange (STX17-AS1 (ENSG00000255145)) of 1.8172 and a log2FoldChange (SULT1A1 (ENSG00000196502)) of −0.7045. It also gave a log2FoldChange (SYNGR1 (ENSG00000100321)) of −0.6288, a log2FoldChange (SYT11 (ENSG00000132718)) of 1.326 and a log2FoldChange (SYT16 (ENSG00000139973)) of 1.62. It also gave a log2FoldChange (TEK (ENSG00000120156)) of −0.6347, a log2FoldChange (TENM1 (ENSG00000009694)) of −0.7059 and a log2FoldChange (TFAP2E (ENSG00000116819)) of −0.6597. The log2FoldChange (TGFB3 (ENSG00000119699)) was −0.6408, the log2FoldChange (TGFBR3 (ENSG00000069702)) was −0.639 and the log2FoldChange (THSD4 (ENSG00000187720)) was −0.6139. For the same sequence, the log2FoldChange (TINAGL1 (ENSG00000142910)) was 1.287, the log2FoldChange (TM4SF1 (ENSG00000169908)) was 1.389 and the log2FoldChange (TMC8 (ENSG00000167895)) was 1.259. The log2FoldChange (TMEM117 (ENSG00000139173)) was −0.6405, the log2FoldChange (TMEM135 (ENSG00000166575)) was −0.6788 and the log2FoldChange (TNFRSF11B (ENSG00000164761)) was −0.5845. For the same sequence, the log2FoldChange (TNFSF8 (ENSG00000106952)) was 1.66, the log2FoldChange (TNFSF10 (ENSG00000121858)) was −0.6562 and the log2FoldChange (TNFSF11 (ENSG00000120659)) was −0.6111. The log2FoldChange (TOM1L2 (ENSG00000175662)) was −0.6126, the log2FoldChange (TRIB2 (ENSG00000071575)) was −0.6666 and the log2FoldChange (TRIML2 (ENSG00000179046)) was 2.081. It also gave a log2FoldChange (TSPAN9 (ENSG00000011105)) of −0.6484, a log2FoldChange (VIPR2 (ENSG00000106018)) of 1.91 and a log2FoldChange (VWA1 (ENSG00000179403)) of −0.6674. The log2FoldChange (VWCE (ENSG00000167992)) was 1.639, the log2FoldChange (XAF1 (ENSG00000132530)) was −0.6048 and the log2FoldChange (XG (ENSG00000124343)) was 2.256. The log2FoldChange (ZC3H6 (ENSG00000188177)) was −0.6449, the log2FoldChange (ZDHHC11 (ENSG00000188818)) was 1.322 and the log2FoldChange (ZFYVE28 (ENSG00000159733)) was −0.6436. It also gave a log2FoldChange (ZHX2 (ENSG00000178764)) of −0.5891, a log2FoldChange (ZNF165 (ENSG00000197279)) of 1.226 and a log2FoldChange (ZNF185 (ENSG00000147394)) of 1.367. The log2FoldChange (ZSCAN31 (ENSG00000235109)) was −0.6972.
